Laboratory results reported in publication PMC7312375, “A Novel, Pan-PDE Inhibitor Exerts Anti-Fibrotic Effects in Human Lung Fibroblasts via Inhibition of TGF-β Signaling and Activation of cAMP/PKA Signaling” (International Journal of Molecular Sciences, 2020).

What was measured:
PDE3A = target: T1, PDE3A (Homo sapiens, UniProt Q14432); assay: PDE-Glo assay, human recombinant PDE3A; format: biochemical; conditions: n.a. = not active; read-out: PDE-IC50 3A
T1 construct: purchased SignalChem
Method: Inhibitory activities of the investigated compounds against various subtypes of human recombinant (hr)PDEs, namely PDE1A, PDE1B, PDE1C, PDE3A, PDE3B, PDE4A, PDE4B, PDE4D, PDE7A, and PDE8A were assessed using a PDE-Glo^TM Assay Kit (Promega, Madison, WI, USA) according to the protocol provided by the manufacturer. Briefly, appropriate amounts of each enzyme (SignalChem, Richmond, B.C., Canada), diluted with PDE-Glo reaction buffer, were distributed on a 384-well plate (Thermo Scientific, Waltham, MA, USA). The investigated compounds were dissolved in DMSO, diluted with the same vehicle, and mixed with the reaction buffer at a v/v ratio of 1:5. Thereafter, 1 µL of these mixtures and 2.5 µL of the cAMP solution as a substrate were added. The final cAMP concentration was 0.05 µM. The samples were incubated for 10 min at 30 °C. […] Finally, 10 µL of PDE-Glo kinase reagent was added, and luminescence was measured using the POLARstar Omega plate reader (BMG LABTECH, Ortenberg, Germany). […] The relative activities (A, %) of all samples were calculated from the following equation: A = [(LUsample − LUblank)/(LUcontrol − LUblank)]·100%; where LUcontrol is the luminescence of a control sample in the absence of a PDE inhibitor, LUsample is a luminescence of an investigated sample in the presence of an inhibitor, and LUblank is a luminescence of a sample in the absence of enzyme (activity = 0). […]

[1] = system: TGF-β1-induced MRC-5 cells; assay: Western blot of p-CREB; format: cell-based, human; conditions: 10 µM
Method: Western Blot analysis was performed according to a standard protocol. Briefly, MRC-5 cells were pre-incubated with the study compounds (10 µM) for 1 h, followed by 48 h incubation with TGF-β1 and then lysed in RIPA buffer (RIPA Lysis and Extraction Buffer, Thermo Fisher Scientific, Waltham, MA, USA) and supplemented with protease inhibitor cocktail and phosphatase inhibitor cocktail (both from Sigma Aldrich, St. Louis, MO, USA). Equal amounts of protein (30 µg) were separated using 10% SDS-polyacrylamide gels and transferred onto polyvinylidene difluoride (PVDF) membranes (Thermo Fisher Scientific, Waltham, MA, USA). […] ROD was measured according to the NIH guidelines with Fiji ImageJ Software. […]

T1 sequence (Q14432 whole entry): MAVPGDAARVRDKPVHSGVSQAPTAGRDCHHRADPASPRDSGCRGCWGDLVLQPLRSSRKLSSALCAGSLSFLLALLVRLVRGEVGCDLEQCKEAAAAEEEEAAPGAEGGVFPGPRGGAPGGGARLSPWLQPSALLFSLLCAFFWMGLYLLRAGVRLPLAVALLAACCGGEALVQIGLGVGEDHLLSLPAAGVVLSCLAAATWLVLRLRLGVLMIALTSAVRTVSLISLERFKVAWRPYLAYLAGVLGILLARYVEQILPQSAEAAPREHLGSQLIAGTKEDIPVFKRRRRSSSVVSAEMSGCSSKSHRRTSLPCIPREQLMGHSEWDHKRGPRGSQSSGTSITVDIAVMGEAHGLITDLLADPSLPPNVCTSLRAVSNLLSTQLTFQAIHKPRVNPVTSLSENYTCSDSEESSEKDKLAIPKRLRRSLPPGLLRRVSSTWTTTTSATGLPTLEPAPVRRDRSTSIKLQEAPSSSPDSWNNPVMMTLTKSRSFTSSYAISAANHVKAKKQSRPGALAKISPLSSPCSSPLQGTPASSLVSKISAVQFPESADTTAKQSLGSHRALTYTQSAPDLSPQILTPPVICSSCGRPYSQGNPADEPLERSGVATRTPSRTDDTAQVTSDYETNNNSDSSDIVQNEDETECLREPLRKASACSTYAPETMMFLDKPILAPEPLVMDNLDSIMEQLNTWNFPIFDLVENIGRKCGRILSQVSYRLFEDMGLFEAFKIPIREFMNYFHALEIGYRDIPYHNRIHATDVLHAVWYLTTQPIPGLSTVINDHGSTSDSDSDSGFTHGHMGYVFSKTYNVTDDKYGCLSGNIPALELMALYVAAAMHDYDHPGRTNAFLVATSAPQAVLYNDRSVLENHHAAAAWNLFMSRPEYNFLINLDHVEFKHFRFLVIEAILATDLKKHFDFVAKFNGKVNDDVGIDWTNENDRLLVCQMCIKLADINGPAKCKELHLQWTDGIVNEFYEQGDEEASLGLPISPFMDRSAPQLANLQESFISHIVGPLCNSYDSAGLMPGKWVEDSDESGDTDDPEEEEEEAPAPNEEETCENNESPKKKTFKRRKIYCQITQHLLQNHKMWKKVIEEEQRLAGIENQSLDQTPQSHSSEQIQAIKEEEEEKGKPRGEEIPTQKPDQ

Row | SMILES | IC50 (PDE3A) [nM] | CREB phosphorylation (immunoblot) [1]
1 | Cn1c(=O)c2c(nc(NCc3ccco3)n2CCCC(=O)NN=Cc2ccc(O)cc2O)n(C)c1=O [Compound 832, N′-(2,4-dihydroxybenzylidene)-4-(8-((furan-2-ylmethyl)amino)-1,3-dimethyl-2,6-dioxo-1,2,3,6-tetrahydro-7H-purin-7-yl)butanehydrazide] | 125 | 
2 | CCCCOc1nc2c(c(=O)n(C)c(=O)n2C)n1CCCC(=O)Nc1cc(C(C)(C)C)ccc1O [Compound 145, 4-(8-butoxy-1,3-dimethyl-2,6-dioxo-1,2,3,6-tetrahydro-7H-purin-7-yl)-N-(5-(tert-butyl)-2-hydroxyphenyl)butanamide] |  | increased CREB phosphorylation
